From ChEMBL document CHEMBL5154820 (Eur J Med Chem, 2022) come the findings set out here.

Data set [1] has as its system HeLa. Put plainly: Induction of cell cycle arrest in human HeLa cells assessed as 2N cells at 1.5 nM measured after 24 hrs by propidium iodide staining based flow cytometric analysis analysis ( Rvb = 41.7%). Type of data set: functional. A general note: A flow cytometer gives signals particle by particle.
Data set [2] has as its system HeLa. In words: Induction of cell cycle arrest in human HeLa cells assessed as 4N cells at 1.5 nM measured after 24 hrs by propidium iodide staining based flow cytometric analysis analysis ( Rvb = 17.1%). The format is functional.
The test system of data set [3] is HeLa. In words: Induction of cell cycle arrest in human HeLa cells assessed as accumulation of cells at G2/M phase at 1.5 nM after 24 hrs by propidium iodide staining based flow cytometric analysis (reference value: 17.1%). The format is functional.
Data set [4] concerns HeLa. Put plainly: Induction of apoptosis in human HeLa cells assessed as necrotic cells at 1.5 nM measured after 24 hrs by Annexin V-FITC/7-AAD staining based flow cytometric analysis (reference value: 0.45%). Type of data set: functional.
In data set [5] the test system is HeLa. In words: Induction of apoptosis in human HeLa cells assessed as early apoptotic cells at 1.5 nM measured after 24 hrs by Annexin V-FITC/7-AAD staining based flow cytometric analysis (reference value: 18.8%). The format is functional.
Data set [6] has as its system HeLa. Put plainly: Induction of apoptosis in human HeLa cells assessed as early apoptotic cells at 3 nM measured after 24 hrs by Annexin V-FITC/7-AAD staining based flow cytometric analysis (reference value: 18.8%). Type of data set: functional.
Data set [7] has as its system HeLa. Put plainly: Induction of apoptosis in human HeLa cells assessed as necrotic cells at 3 nM measured after 24 hrs by Annexin V-FITC/7-AAD staining based flow cytometric analysis (reference value: 0.45%). Type of data set: functional.
For data set [8], the system named is HeLa. In words: Induction of cell cycle arrest in human HeLa cells assessed as 2N cells at 3 nM measured after 24 hrs by propidium iodide staining based flow cytometric analysis analysis ( Rvb = 41.7%). The format is functional.
Data set [9] concerns HeLa. In words: Induction of apoptosis in human HeLa cells assessed as late apoptotic cells at 6 nM measured after 24 hrs by Annexin V-FITC/7-AAD staining based flow cytometric analysis (reference value: 5.22%). The format is functional.
Data set [10] is described as follows: Toxicity in BABL/c mouse xenografted with human HeLa cells assessed as body weight gain at 30 mg/kg, ip administered daily for 21 days followed by addition of 3 mg/kg DDP for every 2 days and measured every 3 days. Particulars: in vivo, 504 h, time 21 day. The format is organism-based. On the technique in general: Xenograft models place foreign cells or tissue in a host animal.

Data set [11] in a line: Retention time of the compound. The format is physicochemical.
The next data set has as its target Tubulin (Sus scrofa) (UniProt P02554+P02550). In words: Inhibition of pig brain tubulin polymerization at 3 uM by spectrophotometer analysis relative to control. Also noted: scale not given: the % may be the effect or the level left. Particulars: Sus scrofa domesticus.
Data set [12] is described as follows: MRT in C57 nude mouse at 30 mg/kg, ip measured at 0.083 to 24 hrs by LC/MS/MS analysis. The format is ADME, organism-based. As to conditions: in vivo, time 0.083-24 hrs.
Data set [13] can be described thus: Nephrotoxicity in BABL/c mouse assessed as increased creatinine level at 60 mg/kg, ip administered daily for 21 days relative to vehicle. Type of data set: toxicity, organism-based. As to conditions: in vivo, 504 h, time 21 day.
For data set [14], the target named is Tubulin beta (Homo sapiens) (UniProt P68371+Q9H4B7+Q13509+P04350+Q3ZCM7+P07437+Q13885+Q9BVA1+Q9BUF5+A6NNZ2). Put plainly: Binding affinity to beta-tubulin colchicine binding site in human HeLa cells assessed as decrease of adduct formation by measuring gray value measured at 1 uM incubated for 2 hrs followed by addition of EBI measured after 1.5 hrs by EBI competition based Western blotting analysis. Type of data set: cell-based. As to conditions: time 3.5 hrs. Background: A western blot detects proteins with antibodies after separation by electrophoresis.

Data set [15] relates to HeLa. In words: Antimigratory activity against human HeLa cells at 0.2 uM measured after 24 hrs by scratch wound healing based fluorescence inverted microscopic analysis. Type of data set: functional.
Data set [16] in a line: Apparent clearance during terminal phase in C57 nude mouse at 30 mg/kg, ip measured at 0.083 to 24 hrs by LC/MS/MS analysis. As to conditions: in vivo, time 0.083-24 hrs, read-out: CLz/F (converted). Type of data set: ADME, organism-based.
Data set [17] relates to HeLa. In words: Inhibition of colony formation in human HeLa cells at 100 nM and treated for every 48 hrs with fresh medium measured after 14 days by crystal violet staining method. The format is functional. On the set-up: scale not given: the % may be the effect or the level left. As to conditions: time 14 day.
The nature of data set [18]: Acute toxicity against ICR mouse assessed as glycogen deposition in liver at 1000 mg/kg, ip measured after 14 days by H and E staining method. Type of data set: organism-based. As to conditions: in vivo, 336 h, time 14 day.
The test system of data set [19] is HeLa. In words: Induction of cell cycle arrest in human HeLa cells assessed as S-phase at 0.1 uM measured after 24 hrs by propidium iodide staining based flow cytometric analysis analysis ( Rvb = 15.5%). The format is functional.
Data set [20] is described as follows: Resistant factor, ratio of IC50 for antiproliferative activity against human HeLa/DDP cells to IC50 for human HeLa cells. Type of data set: functional.
The nature of data set [21]: Toxicity against BABL/c mouse assessed as morphological changes in lung at 30 mg/kg, ip administered daily for 21 days followed by addition of 3 mg/kg DDP for every 2 days by H and E staining method. The format is organism-based. Particulars: in vivo, 504 h, time 21 day.
Data set [22] has as its system HeLa. Put plainly: Inhibition of colony formation in human HeLa cells at 20 nM and treated for every 48 hrs with fresh medium measured after 14 days by crystal violet staining method ( Rvb = 67.3%). The format is functional. Also noted: scale not given: the % may be the effect or the level left. Particulars: time 14 day.
For data set [23], the system named is HeLa. In words: Induction of apoptosis in human HeLa cells assessed as viable cells at 0.1 uM measured after 24 hrs by Annexin V-FITC/7-AAD staining based flow cytometric analysis (reference value: 70.1%). Type of data set: functional. As to conditions: read-out: Activity.
Data set [24] relates to HeLa. Put plainly: Induction of cell cycle arrest in human HeLa cells assessed as < 2N cells at 0.1 uM measured after 24 hrs by propidium iodide staining based flow cytometric analysis analysis ( Rvb = 7.07%). Type of data set: functional.
Data set [25] is described as follows: Toxicity against BABL/c mouse assessed as morphological changes in lung at 30 to 60 mg/kg, ip administered daily for 21 days by H and E staining method. The format is organism-based. Particulars: in vivo, 504 h, dose 30-60 mg/kg, time 21 day.
The test system of data set [26] is HeLa. Put plainly: Antimigratory activity against human HeLa cells at 0.4 uM measured after 24 hrs by scratch wound healing based fluorescence inverted microscopic analysis. The format is functional.
Data set [27] can be described thus: Nephrotoxicity in BABL/c mouse assessed as increased creatinine level at 30 mg/kg, ip administered daily for 21 days relative to vehicle. The format is toxicity, organism-based. Particulars: in vivo, 504 h, time 21 day.
Data set [28] in a line: Nephrotoxicity in BABL/c mouse assessed as increased creatinine level at 30 mg/kg, ip administered daily for 21 days followed by addition of 3 mg/kg DDP for every 2 days relative to vehicle. Particulars: in vivo, 504 h, time 21 day. The format is toxicity, organism-based.
Data set [29] relates to HeLa. Put plainly: Induction of apoptosis in human HeLa cells assessed as early apoptotic cells at 0.2 uM measured after 24 hrs by Annexin V-FITC/7-AAD staining based flow cytometric analysis (reference value: 20.8%). Type of data set: functional.
Data set [30] concerns HeLa. In words: Induction of cell cycle arrest in human HeLa cells assessed as 4N cells at 0.2 uM measured after 24 hrs by propidium iodide staining based flow cytometric analysis analysis ( Rvb = 20.3%). The format is functional.
The subject of data set [31] is HeLa. In words: Induction of apoptosis in human HeLa cells assessed as late apoptotic cells at 0.1 uM measured after 24 hrs by Annexin V-FITC/7-AAD staining based flow cytometric analysis (reference value: 8.51%). The format is functional.
Data set [32] in a line: Acute toxicity in ICR male mouse assessed as body weight gain at 100 to 1000 mg/kg, ip measured daily for 14 days. The format is organism-based. As to conditions: in vivo, 336 h, dose 100-1000 mg/kg, time 14 day.

Chain of Tubulin (Sus scrofa) (P02550 whole entry, looked up): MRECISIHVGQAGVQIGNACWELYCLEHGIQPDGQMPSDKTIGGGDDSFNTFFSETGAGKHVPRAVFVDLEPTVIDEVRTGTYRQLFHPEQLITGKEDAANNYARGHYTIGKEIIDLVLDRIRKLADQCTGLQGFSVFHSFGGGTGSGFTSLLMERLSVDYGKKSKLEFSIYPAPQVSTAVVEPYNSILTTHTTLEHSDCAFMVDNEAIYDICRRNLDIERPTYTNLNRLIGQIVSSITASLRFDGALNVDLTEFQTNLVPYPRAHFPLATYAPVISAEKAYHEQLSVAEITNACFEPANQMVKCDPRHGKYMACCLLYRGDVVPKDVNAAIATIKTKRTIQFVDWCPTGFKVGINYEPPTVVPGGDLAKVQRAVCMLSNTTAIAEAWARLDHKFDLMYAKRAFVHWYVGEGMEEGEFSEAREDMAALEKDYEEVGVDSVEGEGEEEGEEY
Chain of Tubulin (Sus scrofa) (P02554 whole entry, looked up): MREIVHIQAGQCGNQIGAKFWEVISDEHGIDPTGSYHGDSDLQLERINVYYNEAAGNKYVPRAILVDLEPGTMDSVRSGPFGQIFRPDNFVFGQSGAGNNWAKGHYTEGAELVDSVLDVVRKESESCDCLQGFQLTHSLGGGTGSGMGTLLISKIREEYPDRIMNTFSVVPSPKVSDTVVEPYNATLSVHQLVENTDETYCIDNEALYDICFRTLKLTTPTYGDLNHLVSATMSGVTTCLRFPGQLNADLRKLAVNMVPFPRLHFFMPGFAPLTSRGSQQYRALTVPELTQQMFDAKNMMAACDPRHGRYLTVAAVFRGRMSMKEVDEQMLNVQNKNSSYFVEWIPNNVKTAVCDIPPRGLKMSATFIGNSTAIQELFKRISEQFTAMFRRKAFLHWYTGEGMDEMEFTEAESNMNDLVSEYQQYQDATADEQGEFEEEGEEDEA

Take `COc1ccc(/C=C\c2cc(OC)c(OC)c(OC)c2)cc1O` [COMBRETASTATIN A4]: the Activity is 43.1% in the data set with HeLa [1]; 22.5% with HeLa [2]; 22.5% in the data set on HeLa [3]; 0.91% with HeLa [4]; 23.5% in the data set on HeLa [5]; 43.8% in the data set on HeLa [6]. The Activity with HeLa [7] was 0.64%; with HeLa [8], 24.9%; in the data set with HeLa [9], 5.94%.

Broadly, the MRT is the average time that molecules of a dose stay in the body. As to `CCOc1ccc(-c2cncnc2-c2cc(OC)c(OC)c(OC)c2)cc1Cl`, the Activity result in data set [10] is “Non-Toxic”; on Tubulin (Sus scrofa), 39%; in [13] it was 23%; in [14], 0.53; in the data set with HeLa [15] it was 40%; in the data set on HeLa [17], 100%. Moreover, the Activity result is listed as “Non-Toxic” in data set [18]; 13% with HeLa [19]; “Non-Toxic” in data set [21]; 51.5% with HeLa [22]; 7.04% in the data set with HeLa [24]; “Non-Toxic” in [25]. The Activity in the data set on HeLa [26] was determined as 50%; in data set [27] it was 31%; in data set [28] it was 40%; in the data set with HeLa [29] it was 66.4%; with HeLa [30], 47.6%; with HeLa [31], 7.29%. The Activity in data set [32] was 8.1 g. In addition, the Retention_time in data set [11] amounted to 2.06 min. Further, the MRT in [12] stood at 1.77 h. Further, the CL/F in data set [16] is 84.2 mL/min/kg. Further, the “Ratio IC50” value in [20] worked out at 79.2. In the data set on HeLa [23], the viability at 0.1 µM turned out to be 56.3%.
